Experimental data reported in patent US20130034613A1, “FORMULATIONS OF PHOSPHITES” (Ceradis B.V., priority 2009, published 2013).

Tests used:
Type in all cases: in vivo
[1] = test system: garden cress (Lepidium sativum) seedlings; test: Phytotoxicity towards garden cress seedlings after spraying; conditions: summary of Table 2
Description: Two compositions of potassium phosphite are prepared, one with and one without calcium lignosulfonate (Borresperse CA®, Borregaard LignoTech Ltd, Germany). The formulation and the concentration in the spray solution are calculated in such a way that the dosage of phosphite is the same for both compositions (120 mM=14.4 g potassium phosphite/1 spray solution). A control is added in which the adjuvants alone (without lignosulfonate or phosphite) are tested.
Various adjuvants are added to the two compositions: alcohol ethoxylate (commercial product: Genapol EP 2584, Clariant, Germany), di-octyl sulfosuccinate (commercial product Emulsogen SF8, Clariant, Germany), quaternary ammonium surfactant (commercial product Geronol CF/PN-20N, Rhodia, France) and ethoxylated tallow amine (commercial product Ethomeen S25, Akzo Nobel, The Netherlands). All adjuvant products arc added at a concentration of 5 g/l spray solution. For both compositions, a control is added without adjuvant.
Garden cress seedlings are grown in plastic boxes (100 seeds/box) on mineral sand. Boxes were kept at 22° C. One week old seedlings are sprayed with the various spray solutions until run-off of the solutions occurs. Phytotoxicity is observed three days after spraying. The percentage of seedlings dead or showing phytotoxicity symptoms is estimated. […]

rose = test: Phytotoxicity towards rose after spraying (Example 2); conditions: summary of Table 3
Excerpt: The experimental design is a randomized block design with a plot size of 3 plants per plot. The experiment has 4 replications. Plants are sprayed with solution until run-off occurs. The composition and the dose rate of the different treatments are the same as in example 1, except that calcium lignosulfonate was replaced by sodium lignosulfonate (Borresperse NA®, Borregaard LignoTech Ltd, Germany).
Phytotoxicity is observed one week after spraying. Per plant, the percentage leaf area dead or showing phytotoxicity symptoms is estimated.

[2] = test system: grapevine cultivar Merlot; test: Phytotoxicity towards grapevine after spraying; conditions: summary of Table 4
Excerpt: The experimental design is a randomized block design with a plot size of 3 plants per plot. The experiment has 4 replications. Plants are sprayed with solution until run-off occurs. The composition and the dose rate of the different treatments are the same as in example 1.
Phytotoxicity is observed one week after spraying. Per plant, the percentage leaf area dead or showing phytotoxicity symptoms was estimated.

Measured: phytotoxicity (in words)

potassium phosphite
phytotoxic: all assays above
